Reference: ChEMBL document CHEMBL1135080, “Pyridazine based inhibitors of p38 MAPK” (Bioorg Med Chem Lett, 2002)
pIC50: −log10 of the molar value.

Assays:
MAP kinase p38 [1] = target: T1, MAP kinase p38 (Homo sapiens, UniProt O15264+Q15759+Q16539+P53778); assay: Inhibition of Mitogen-activated protein kinase p38; assay type: protein assay
MAP kinase p38 [2] = target: T1, MAP kinase p38; assay: Inhibition of Mitogen-activated protein kinase p38 at 1000 nM; assay type: protein assay
[3] = target: RAF proto-oncogene serine/threonine-protein kinase (Homo sapiens) (UniProt P04049); assay: Inhibition of c-Raf kinase at 5000 nM
Sequence of RAF proto-oncogene serine/threonine-protein kinase (Homo sapiens) (P04049 whole entry): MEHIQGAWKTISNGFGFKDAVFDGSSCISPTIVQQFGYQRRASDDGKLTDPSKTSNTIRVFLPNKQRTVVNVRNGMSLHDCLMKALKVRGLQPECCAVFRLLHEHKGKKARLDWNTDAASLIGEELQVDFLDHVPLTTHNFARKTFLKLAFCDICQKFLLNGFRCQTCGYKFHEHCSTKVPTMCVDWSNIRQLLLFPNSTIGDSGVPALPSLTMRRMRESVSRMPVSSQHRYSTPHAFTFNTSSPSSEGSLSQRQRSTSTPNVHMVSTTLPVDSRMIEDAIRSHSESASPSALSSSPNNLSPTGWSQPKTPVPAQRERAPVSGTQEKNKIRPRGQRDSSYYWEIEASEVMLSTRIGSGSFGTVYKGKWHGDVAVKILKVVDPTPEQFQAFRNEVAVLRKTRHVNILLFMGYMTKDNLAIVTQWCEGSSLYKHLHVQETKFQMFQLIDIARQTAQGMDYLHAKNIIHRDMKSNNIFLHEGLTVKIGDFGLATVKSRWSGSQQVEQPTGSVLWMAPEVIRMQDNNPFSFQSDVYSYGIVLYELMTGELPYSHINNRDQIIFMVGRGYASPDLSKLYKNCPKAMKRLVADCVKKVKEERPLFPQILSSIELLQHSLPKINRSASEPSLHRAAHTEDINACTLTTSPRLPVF

[4] = target: T2, Mitogen-activated protein kinase 9 (Homo sapiens, UniProt P45984); assay: Inhibition of JNK2-alpha-2 kinase
T2 sequence (P45984 whole entry): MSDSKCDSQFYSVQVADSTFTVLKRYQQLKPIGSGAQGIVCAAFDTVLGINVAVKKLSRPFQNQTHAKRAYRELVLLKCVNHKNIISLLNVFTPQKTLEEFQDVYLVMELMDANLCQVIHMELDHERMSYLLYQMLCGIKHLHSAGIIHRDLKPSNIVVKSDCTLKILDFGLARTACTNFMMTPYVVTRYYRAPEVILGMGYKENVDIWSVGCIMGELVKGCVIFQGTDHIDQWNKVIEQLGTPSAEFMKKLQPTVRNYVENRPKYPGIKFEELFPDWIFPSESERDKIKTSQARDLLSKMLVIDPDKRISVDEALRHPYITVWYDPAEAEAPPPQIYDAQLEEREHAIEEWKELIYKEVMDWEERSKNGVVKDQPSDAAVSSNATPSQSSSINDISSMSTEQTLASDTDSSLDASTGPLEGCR

[5] = target: Tyrosine-protein kinase Lck (Homo sapiens) (UniProt P06239); assay: Inhibition of LCK1 kinase at 15000 nM
Sequence of Tyrosine-protein kinase Lck (Homo sapiens) (P06239 2-509 limits assumed): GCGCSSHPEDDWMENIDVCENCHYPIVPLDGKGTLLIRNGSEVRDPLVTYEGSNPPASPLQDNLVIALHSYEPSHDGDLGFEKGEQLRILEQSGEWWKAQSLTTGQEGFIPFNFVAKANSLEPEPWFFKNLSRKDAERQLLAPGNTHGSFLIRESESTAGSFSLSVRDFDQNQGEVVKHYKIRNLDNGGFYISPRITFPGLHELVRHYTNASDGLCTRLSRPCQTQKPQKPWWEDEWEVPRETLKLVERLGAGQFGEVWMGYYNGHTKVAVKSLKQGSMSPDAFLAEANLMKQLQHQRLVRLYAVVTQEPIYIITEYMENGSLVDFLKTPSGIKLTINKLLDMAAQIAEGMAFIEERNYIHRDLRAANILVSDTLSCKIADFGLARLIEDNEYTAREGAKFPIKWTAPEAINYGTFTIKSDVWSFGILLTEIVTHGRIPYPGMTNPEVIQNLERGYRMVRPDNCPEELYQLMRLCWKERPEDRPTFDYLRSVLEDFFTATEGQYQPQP

[6] = target: T2, Mitogen-activated protein kinase 9; assay: Inhibition of JNK2-alpha-1 kinase

Structure (SMILES) | IC50 (MAP kinase p38 [1]) [nM] | further results
C[C@H](Nc1nccc(-c2cc(N3CCCCC3)nnc2-c2cccc(C(F)(F)F)c2)n1)c1ccccc1 | 20.1 | 
C[C@H](Nc1nccc(-c2cc(N(C)C)nnc2-c2cccc(C(F)(F)F)c2)n1)c1ccccc1 | 2.5 | 
C[C@H](Nc1nccc(-c2nnc(C3CCNCC3)cc2-c2cccc(C(F)(F)F)c2)n1)c1ccccc1 |  | inhibition (MAP kinase p38 [2]): 4.81%
C[C@H](Nc1nccc(-c2cc(N(C)CCN(C)C)nnc2-c2cccc(C(F)(F)F)c2)n1)c1ccccc1 | 1.4 | 
CC1CCN(c2cc(-c3ccnc(N[C@@H](C)c4ccccc4)n3)c(-c3cccc(C(F)(F)F)c3)nn2)CC1 | 7.4 | 
C[C@H](Nc1nccc(-c2nc(C3CCNCC3)n(C)c2-c2cccc(C(F)(F)F)c2)n1)c1ccccc1 | 12000 | 
C[C@H](Nc1nccc(-c2cc(N3CCN(C)CC3)nnc2-c2cccc(C(F)(F)F)c2)n1)c1ccccc1 | 1.9 | 
C[C@H](Nc1nccc(-c2cc(N3CCNCC3)nnc2-c2cccc(C(F)(F)F)c2)n1)c1ccccc1 | 0.6 | 
C[C@H](Nc1nccc(-c2cc(N3CCOCC3)nnc2-c2cccc(C(F)(F)F)c2)n1)c1ccccc1 | 2.6 | inhibition [3]: 29%; pIC50 [4]: 5.85; inhibition [5]: 22%; pIC50 [6]: 6.09
